According to patent US20060069132A1, “Azolecarboxamide herbicides” (priority 2004, published 2006):

Key:
[1] = test system: barnyardgrass; assay: Test B pre-/postemergence herbicide test; type: in vivo, Echinochloa crus-galli; conditions: for Barnyardgrass plant response rating: postemergence
Outline: (§1)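 Pre: seeds sown, then sprayed. Post: 1–4-leaf plants (2–18 cm) sprayed at the same time. Paddy: flooded, treated at 2-leaf stage. Formulation: non-phytotoxic solvent with surfactant. Greenhouse 13–15 days; visual 0–100 score relative to controls.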

[2] = test system: rice; assay: Test B flooded paddy test; type: in vivo, Oryza sativa; conditions: 1000 g ai/ha, scale 0 to 100 (0 no effect, 100 complete control)
Outline: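 Formulated test chemicals went onto postemergence plants measuring 2 to 18 cm, at one to four leaves. For the paddy assay, species had reached two leaves. Scoring took place 13–15 days later by eye, relative to untreated plants, using 0 for no effect up to 100 for full control.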

[3] = test system: Surinam grass; assay: Test B pre-/postemergence herbicide test; type: in vivo, Urochloa decumbens; conditions: for Surinam Grass plant response rating: postemergence
Outline: (§2)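 Plants compared with untreated controls 13–15 days post-treatment and given a visual 0–100 injury score. Applications: preemergence to seeds; postemergence at 1- to 4-leaf (2–18 cm); paddy species flooded, 2-leaf stage. Vehicle non-phytotoxic, surfactant included.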

[4] = test system: velvetleaf; assay: Test B pre-/postemergence herbicide test; type: in vivo, Abutilon theophrasti; conditions: for Velvetleaf plant response rating: postemergence
Outline: as §2

[5] = test system: ducksalad; assay: Test B flooded paddy test; type: in vivo, Heteranthera limosa; conditions: 1000 g ai/ha, scale 0 to 100 (0 no effect, 100 complete control)
Outline: (§3)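 Read-out: visual comparison with controls, scored 0 to 100, where 100 means complete control and 0 no effect. Formulated chemicals were applied postemergence to plants 2–18 cm tall (1- to 4-leaf), or to flooded-paddy plants at the 2-leaf stage, then held 13 to 15 days under glass.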

[6] = test system: pigweed; assay: Test B pre-/postemergence herbicide test; type: in vivo, Amaranthus retroflexus; conditions: for Pigweed plant response rating: postemergence
Outline: as §2

[7] = test system: wheat; assay: Test B postemergence herbicide test; type: in vivo, Triticum aestivum; parameters: key to Wheat plant response rating: 0 = no effect, 100 = complete control; conditions: postemergence
Outline: (§4)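 Greenhouse test; postemergence application to plants at 1–4 leaves (2–18 cm); paddy species at 2 leaves; evaluated visually vs controls at 13–15 days; scale 0–100 (100 = complete control).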

[8] = test system: large crabgrass; assay: Test A pre-/postemergence herbicide test; type: in vivo, Digitaria sanguinalis
Outline: (§5)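 Pre: seeded sandy loam, directed soil spray, compound in non-phytotoxic solvent + surfactant. Post: 1–2-leaf plants (2–10 cm), sprayed to runoff. Greenhouse ~10 d; visual injury vs untreated, 0–100 scale.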

[9] = test system: small flower umbrella sedge; assay: Test B flooded paddy test; type: in vivo, Cyperus difformis; conditions: 1000 g ai/ha, scale 0 to 100 (0 no effect, 100 complete control)
Outline: as §3

[10] = test system: corn; assay: Test B pre-/postemergence herbicide test; type: in vivo, Zea mays; conditions: for Corn plant response rating: postemergence
Outline: as §2

[11] = test system: large crabgrass; assay: Test B pre-/postemergence herbicide test; type: in vivo, Digitaria sanguinalis; conditions: for Crabgrass, Large plant response rating: postemergence
Outline: as §2

[12] = test system: barnyardgrass; assay: Test B flooded paddy test; type: in vivo, Echinochloa crus-galli; conditions: 1000 g ai/ha, scale 0 to 100 (0 no effect, 100 complete control)
Outline: as §3

[13] = test system: blackgrass; assay: Test B postemergence herbicide test; type: in vivo, Alopecurus myosuroides; conditions: postemergence
Outline: as §3

[14] = test system: lambsquarters; assay: Test B pre-/postemergence herbicide test; type: in vivo, Chenopodium album; conditions: for Lambsquarters plant response rating: postemergence
Outline: as §2

[15] = test system: wild oat; assay: Test B postemergence herbicide test; type: in vivo, Avena fatua; conditions: postemergence
Outline: as §4

[16] = test system: redroot pigweed; assay: Test A pre-/postemergence herbicide test; type: in vivo, Amaranthus retroflexus
Outline: as §5

[17] = test system: cocklebur; assay: Test B pre-/postemergence herbicide test; type: in vivo, Xanthium strumarium; conditions: for Cocklebur plant response rating: postemergence
Outline: as §1

[18] = test system: velvetleaf; assay: Test A pre-/postemergence herbicide test; type: in vivo, Abutilon theophrasti
Outline: as §5

[19] = test system: barnyardgrass; assay: Test A pre-/postemergence herbicide test; type: in vivo, Echinochloa crus-galli
Outline: as §5

[20] = test system: rice; assay: Test B pre-/postemergence herbicide test; type: in vivo, Oryza sativa; conditions: 0 = no effect, 100 = complete control, preemergence
Outline: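 Greenhouse pot assay with simultaneous preemergence (treated seed) and postemergence (2–18 cm seedlings) applications of surfactant-containing, non-phytotoxic solvent formulations. Response scored visually 13–15 days later on a 0–100 scale, 100 meaning complete control.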

[21] = test system: morningglory; assay: Test A pre-/postemergence herbicide test; type: in vivo, Ipomoea spp.
Outline: as §5

[22] = test system: giant foxtail; assay: Test A pre-/postemergence herbicide test; type: in vivo, Setaria faberi
Outline: as §5

[23] = test system: morningglory; assay: Test B pre-/postemergence herbicide test; type: in vivo, Ipomoea coccinea; conditions: for Morningglory plant response rating: postemergence
Outline: as §1

[24] = test system: giant foxtail; assay: Test B pre-/postemergence herbicide test; type: in vivo, Setaria faberi; conditions: for Foxtail, Giant plant response rating: postemergence
Outline: as §2

[25] = 125 g ai/ha, 0 = no effect, 100 = complete control, preemergence
[26] = 500 g ai/ha, visual rating, 0 = no effect, 100 = complete control, preemergence
[27] = 125 g ai/ha, visual rating, scale 0 (no effect) to 100 (complete control)
[28] = 500 g ai/ha, scale 0 to 100, 0 is no effect, 100 is complete control
[29] = Postemergence, 500 g ai/ha, 0 to 100 scale, 0 no effect, 100 complete control
[30] = Postemergence, 2000 g ai/ha, 0 to 100 scale, 0 no effect, 100 complete control
[31] = Preemergence, 2000 g ai/ha, visual rating, 0 to 100 scale (0 no effect, 100 complete control)
[32] = preemergence, 500 g ai/ha, visual injury, 0 to 100 scale (0 no effect, 100 complete control)

C#CCNC(=O)c1ccc(F)c(NC(=O)c2cc(C(C)(C)C)nn2CC)n1 [Compound 279]
100: Plant response rating, Pigweed [6, 26] | Lambsquarters plant response rating (0 to 100 scale) [14, 25] | Plant response rating, Lambsquarters [14, 26] | Pigweed plant response rating [16, 31]
95: Pigweed plant response rating [16, 32]
70: Crabgrass, Large plant response rating [8, 31] | Crabgrass, Large plant response rating [8, 32] | Pigweed plant response rating [16, 29]
25: Foxtail, Giant plant response rating [22, 32]
55: Barnyardgrass plant response rating [19, 31]
50: Plant response rating, Rice ([20]; 500 g ai/ha, visual rating)
90: Pigweed plant response rating (0 to 100 scale) [6, 25]
5: Barnyardgrass plant response rating [19, 32] | Morningglory plant response rating [21, 29] | Plant response rating, Morningglory [21, 30]
40: Plant response rating, Barnyardgrass [1, 26] | Rice plant response rating [2] | Plant response rating, Surinam Grass [3, 26] | Plant response rating, Barnyardgrass [19, 30]
80: Plant response rating, Crabgrass, Large [11, 26]
10: Barnyardgrass plant response rating [1, 28] | Surinam Grass plant response rating [3, 27] | Surinam Grass plant response rating [3, 28] | Velvetleaf plant response rating [4, 27] | Velvetleaf plant response rating [4, 28] | Crabgrass, Large plant response rating [8, 29] | Corn plant response rating [10, 27] | Corn plant response rating [10, 28] | Crabgrass, Large plant response rating (0 to 100 scale) [11, 25] | Crabgrass, Large plant response rating [11, 28] | Barnyardgrass plant response rating [12] | Blackgrass plant response rating [13, 27] | Lambsquarters plant response rating [14, 27] | Velvetleaf plant response rating [18, 32] | Morningglory plant response rating [21, 32] | Foxtail, Giant plant response rating [22, 29] | Foxtail, Giant plant response rating (0 to 100 scale) [24, 25]
20: Barnyardgrass plant response rating (0 to 100 scale) [1, 25] | Plant response rating, Velvetleaf [4, 26] | Plant response rating, Crabgrass, Large [8, 30] | Lambsquarters plant response rating [14, 28] | Oat, Wild plant response rating [15, 27] | Oat, Wild plant response rating [15, 28] | Cocklebur plant response rating [17, 28] | Velvetleaf plant response rating [18, 29] | Plant response rating, Velvetleaf [18, 30] | Barnyardgrass plant response rating [19, 29] | Rice plant response rating (0 to 100 scale) ([20]; 125 g ai/ha) | Morningglory plant response rating [21, 31] | Plant response rating, Foxtail, Giant [22, 30] | Morningglory plant response rating [23, 28]
0: Barnyardgrass plant response rating [1, 27] | Surinam Grass plant response rating (0 to 100 scale) [3, 25] | Velvetleaf plant response rating (0 to 100 scale) [4, 25] | Corn plant response rating (0 to 100 scale) [10, 25] | Plant response rating, Corn [10, 26] | Crabgrass, Large plant response rating [11, 27] | Cocklebur plant response rating (0 to 100 scale) [17, 25] | Plant response rating, Cocklebur [17, 26] | Cocklebur plant response rating [17, 27] | Morningglory plant response rating (0 to 100 scale) [23, 25] | Plant response rating, Morningglory [23, 26] | Morningglory plant response rating [23, 27] | Foxtail, Giant plant response rating [24, 27] | Foxtail, Giant plant response rating [24, 28]
30: Pigweed plant response rating [6, 27] | Pigweed plant response rating [6, 28] | Wheat plant response rating [7, 27] | Wheat plant response rating [7, 28] | Blackgrass plant response rating [13, 28] | Velvetleaf plant response rating [18, 31] | Plant response rating, Foxtail, Giant [24, 26]
60: Ducksalad plant response rating [5] | Sedge, Umbrella plant response rating [9] | Plant response rating, Pigweed [16, 30] | Foxtail, Giant plant response rating [22, 31]
